Holding throughout (assay): Bliss excess, mean over the matrix (fraction); higher = more synergy
Assay [1] relates to CS1 (Chondrosarcoma). The method, boiled down:
(§1)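 After 24 hours at 37°C and 5% CO2 in 1536-well plates, cells in DMEM/F12 or RPMI plus 10% FBS received two-drug dose matrices for 72 hours. Viability came from CellTiter-Glo 2.0 luminescence and was scaled as inhibition, anchored at 0 by vehicle wells and at 1 by blank wells. Combination Emax is taken as the second-highest inhibition in the matrix, and Bliss excess as the observed combination effect less EA + EB − EA·EB, with EA and EB the single-agent effects.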

Assay [2] deals with D-283MED (Other Solid Carcinomas). The method, boiled down:
as §1

The test system of assay [3] is D-392MG (Glioblastoma). The method, boiled down:
as §1

The subject of assay [4] is H4 (Low Grade Glioma). Put shortly:
as §1

The subject of assay [5] is HCC-827 (Lung Adenocarcinoma). The method, boiled down:
as §1

In assay [6] the test system is HCC1143 (Breast Carcinoma). The method, boiled down: as §1
The subject of assay [7] is HCC38 (Breast Carcinoma). Put shortly:
as §1

Assay [8] deals with HLE (Hepatocellular Carcinoma). Put shortly: as §1
Assay [9] concerns HuO9 (Osteosarcoma). Put shortly: as §1
In assay [10] the test system is MCF7 (Breast Carcinoma). Put shortly:
as §1

Assay [11] concerns MES-SA (Other Solid Carcinomas). Put shortly: as §1
Assay [12] has as its system MSTO-211H (Mesothelioma). The method, boiled down:
as §1

For assay [13], the system named is P31-FUJ (Acute Myeloid Leukemia). The method, boiled down: as §1
Assay [14] has as its system SK-LMS-1 (Other Solid Carcinomas). Put shortly: as §1
The test system of assay [15] is SKN-3 (Head and Neck Carcinoma). Put shortly: as §1
Assay [16] relates to SNG-M (Endometrial Carcinoma). Put shortly: as §1
In assay [17] the test system is SW48 (Colorectal Carcinoma). The method, boiled down: as §1
Assay [18] has as its system SW948 (Colorectal Carcinoma). Put shortly:
as §1

In assay [19] the test system is Saos-2 (Osteosarcoma). The method, boiled down:
as §1

Assay [20] concerns TYK-nu (Ovarian Carcinoma). The method, boiled down: as §1

This is an account of results in the supplement of paper PMC11061612.

As to `CC1(C)CCC(CN2CCN(c3ccc(C(=O)NS(=O)(=O)c4ccc(NCC5CCOCC5)c([N+](=O)[O-])c4)c(Oc4cnc5[nH]ccc5c4)c3)CC2)=C(c2ccc(Cl)cc2)C1` [Venetoclax] + CCN(CCO)CCCOc1ccc2c(Nc3cc(CC(=O)Nc4cccc(F)c4)[nH]n3)ncnc2c1 [AZD2811] (first compound max 1 µM, 7x7, partner max 1 µM), the Bliss excess is -0.0259 in assay [1]; 0.0579 in assay [2]; -0.0351 in [3]; 0.0007 in [4]; -0.015 in [5]; 0.0005 in [6]. Also, the Bliss excess in assay [7] is 0.0347; in assay [8], 0.005; in assay [9], 0.0203; in assay [10] it was 0.0142; in [11] it was 0.0315; in assay [12], -0.0066. The Bliss excess in assay [13] is -0.0512; in assay [14] it was -0.0616; in [15] it was -0.0167; in [16] it was -0.0246; in assay [17] it was -0.0071; in assay [18], -0.0229. The Bliss excess is 0.0727 in assay [19] and -0.0266 in assay [20].
Take `CC1(C)CCC(CN2CCN(c3ccc(C(=O)NS(=O)(=O)c4ccc(NCC5CCOCC5)c([N+](=O)[O-])c4)c(Oc4cnc5[nH]ccc5c4)c3)CC2)=C(c2ccc(Cl)cc2)C1` [Venetoclax] + CN(C)CCCOc1ccc(-c2ccc3ncc4c(c3c2)n(C2CCOCC2)c(=O)n4C)cn1 [AZD0156] (first compound max 1 µM, 7x7, partner max 1 µM): the Bliss excess in assay [1] was 0.0599; in assay [2], 0.0189; in [3], -0.0225; in assay [4], -0.0861; in assay [5], -0.0453; in assay [6], -0.0051. Also, the Bliss excess in assay [7] is 0.0361; in assay [8] it was -0.0463; in assay [9], 0.0483; in assay [10], -0.0152; in [11], -0.0333; in [12], -0.0243. The Bliss excess is -0.0179 in assay [13]; 0.001 in [14]; -0.0221 in [15]; -0.06 in [16]; -0.0216 in assay [17]; -0.0001 in assay [18]. Besides, the Bliss excess is -0.0364 in [19] and -0.0516 in [20].
Regarding `CC1(C)CCC(CN2CCN(c3ccc(C(=O)NS(=O)(=O)c4ccc(NCC5CCOCC5)c([N+](=O)[O-])c4)c(Oc4cnc5[nH]ccc5c4)c3)CC2)=C(c2ccc(Cl)cc2)C1` [Venetoclax] + COc1cc(Nc2ncc3c(n2)-c2ccc(Cl)cc2C(c2c(F)cccc2OC)=NC3)ccc1C(=O)O [Alisertib] (first compound max 1 µM, 7x7, partner max 10 µM), the Bliss excess is -0.0227 in assay [1]; 0.0345 in assay [2]; -0.042 in assay [3]; -0.0124 in [4]; -0.0795 in assay [5]; 0.0244 in assay [6]. Besides, the Bliss excess is -0.0184 in assay [7]; 0.0066 in assay [8]; 0.135 in assay [9]; 0.0079 in assay [10]; -0.0225 in assay [11]; 0.0116 in assay [12]. The Bliss excess was 0.0678 in assay [13]; 0.0215 in assay [14]; -0.0565 in [15]; -0.0189 in assay [16]; -0.0083 in [17]; -0.0996 in [18]. In addition, the values for the Bliss excess in assay [19] and in [20] were 0.047 and -0.0415, respectively.
As to `CC1(C)CCC(CN2CCN(c3ccc(C(=O)NS(=O)(=O)c4ccc(NCC5CCOCC5)c([N+](=O)[O-])c4)c(Oc4cnc5[nH]ccc5c4)c3)CC2)=C(c2ccc(Cl)cc2)C1` [Venetoclax] + C[C@@H]1COCCN1C2=NC(=NC(=C2)C3(CC3)[S@](=N)(=O)C)C4=C5C=CNC5=NC=C4 [AZD6738] (first compound max 1 µM, 7x7, partner max 10 µM), the Bliss excess was 0.0039 in [1]; -0.0345 in assay [2]; -0.0807 in assay [3]; -0.0301 in assay [4]; -0.0418 in assay [5]; -0.0573 in assay [6]. For the same molecule, the Bliss excess was -0.0264 in assay [7]; -0.063 in assay [8]; 0.0275 in assay [9]; 0.0003 in assay [10]; 0.0105 in assay [11]; -0.0344 in [12]. The Bliss excess in [13] was 0.0498; in assay [14], -0.0884; in assay [15], -0.043; in [16], -0.0296; in [17], -0.0398; in assay [18], -0.0835. In addition, the Bliss excess in [19] was -0.0316; in [20], -0.0315.
`CC1(C)CCC(CN2CCN(c3ccc(C(=O)NS(=O)(=O)c4ccc(NCC5CCOCC5)c([N+](=O)[O-])c4)c(Oc4cnc5[nH]ccc5c4)c3)CC2)=C(c2ccc(Cl)cc2)C1` [Venetoclax] + C[C@@H](Nc1cc(F)cc(F)c1)c1cc(C(=O)N(C)C)cc2c(=O)cc(N3CCOCC3)oc12 [AZD8186] (first compound max 1 µM, 7x7, partner max 3 µM): the Bliss excess in assay [1] is -0.0923; in assay [2] it was -0.0149; in assay [3], -0.061; in assay [4], -0.0302; in assay [5], -0.0146; in assay [6] it was -0.0141. The Bliss excess in assay [7] is -0.0075; in assay [8] it was -0.0364; in assay [9], 0.0776; in assay [10] it was -0.0499; in [11], -0.0299; in assay [12], -0.0052. Moreover, the Bliss excess in [13] was 0.0178; in assay [14] it was -0.014; in [15] it was -0.0192; in assay [16] it was -0.0551; in [17], -0.0278; in assay [18], -0.0518. Moreover, the Bliss excess was 0 in [19] and -0.0103 in [20].
Regarding `CC1(C)CCC(CN2CCN(c3ccc(C(=O)NS(=O)(=O)c4ccc(NCC5CCOCC5)c([N+](=O)[O-])c4)c(Oc4cnc5[nH]ccc5c4)c3)CC2)=C(c2ccc(Cl)cc2)C1` [Venetoclax] + Cc1cc2ncnn2cc1Nc1ncc2c(n1)n(C1CCOCC1)c(=O)n2C [AZD7648] (first compound max 1 µM, 7x7, partner max 10 µM), the Bliss excess is -0.0949 in assay [1]; -0.051 in [2]; -0.0374 in assay [3]; -0.0541 in [4]; 0.0085 in assay [5]; 0.0481 in assay [6]. Further, the Bliss excess was -0.007 in [7]; -0.024 in assay [8]; 0.0557 in assay [9]; -0.0267 in assay [10]; -0.0384 in assay [11]; -0.0564 in [12]. In addition, the Bliss excess in assay [13] was -0.015; in assay [14], -0.0292; in assay [15], -0.0193; in assay [16], -0.0516; in assay [17], 0.0327; in [18], -0.0448. Moreover, the Bliss excess in assay [19] was -0.0075; in assay [20], -0.0074.
For `CC1(C)CCC(CN2CCN(c3ccc(C(=O)NS(=O)(=O)c4ccc(NCC5CCOCC5)c([N+](=O)[O-])c4)c(Oc4cnc5[nH]ccc5c4)c3)CC2)=C(c2ccc(Cl)cc2)C1` [Venetoclax] + Cn1cnc2c(F)c(Nc3ccc(Br)cc3Cl)c(C(=O)NOCCO)cc21 [Selumetinib] (first compound max 1 µM, 7x7, partner max 3 µM), the Bliss excess in assay [1] was -0.0498; in assay [2], 0.009; in assay [3], -0.0331; in assay [4] it was 0.006; in [5] it was -0.0212; in [6], -0.0093. Further, the Bliss excess in assay [7] was -0.0322; in [8], -0.0267; in assay [9] it was -0.0173; in [10], -0.058; in assay [11] it was -0.0129; in assay [12], -0.0393. Besides, the Bliss excess in assay [13] was -0.0968; in [14] it was -0.029; in assay [15], 0.019; in [16] it was -0.0282; in assay [17] it was 0.0113; in assay [18], -0.0505. The Bliss excess in assay [19] is -0.0057; in assay [20] it was -0.0594.
